Data on 1 molecule can be found in patent publication US20110312984A1, “STAT3 INHIBITORS” (priority 2008, published 2011).

For the test, the system named is triple negative human breast cancer xenograft. The experiment in a line: Triple-negative human breast cancer xenograft, MSFE after two days of treatment. The test is classed as in vivo, SCID Beige mice. To be noted: 250 mcg, n=3, P<0.05. The text has this:
A tumor line derived from a “triple negative” (ER-negative, PgR-negative, and HER-2 negative) human breast cancer biopsy specimen was transplanted into immunocompromised SCID Beige mice. The animals (n=3) received two doses of vehicle control, 2 different doses of Cpd 188 (125 or 250 mcg), a G-quartet oligodeoxynucleotide (GQ-ODN, T40214; GQ-I) previously determined to target Stat3 (Jing et al., 2004) and a control non-specific ODN (GQ-II) each at two doses (125 or 250 mcg). The animals were sacrificed after only two days of treatment, and MSFE determined.
Xenograft assays. One can use two xenografts developed from human breast cancer biopsies that express activated p-Stat3 by IHC. From these established xenograft lines, for each of the top 5 inhibitors, the following studies may be undertaken: a) short term experiments with stem cell inhibitors at two doses vs. vehicle control and b) the optimal dose of the combination of chemotherapy with each of the five stem cell inhibitors.
a) Short term (2-day) experiments: One can test the five inhibitors at 2 doses. […]
b) Long-term (2-week studies) experiments: One can assess the effect of the self-renewal inhibitor on tumor growth and stem cell behavior. […] Size of the xenografts is monitored longitudinally by caliper measurement using the RECIST criteria for assessment of tumor response. […]

On to `O=C(O)CSc1cc(NS(=O)(=O)c2ccc(C(=O)O)cc2)c2ccccc2c1O` [Cpd188, 4-[({3-[(carboxymethyl)thio]-4-hydroxy-1-naphthyl}amino)sulfonyl]benzoic acid], for which the “reduction in MSFE compared to control” value is “significant reduction”.
